Assay [1] deals with artificial bulbus pili site (human dermal papilla cells + outer root sheath cells). Description: Growth-stimulative activity test on artificial human bulbus pili cell (Alamar Blue relative respiration level). The following applies: for Judgment (cell growth-stimulative effect by relative respiration level): final concentration 10^−12 M or 10^−14 M (not said which), 2 days incubation, negative control 0.1% ethanol = 100%; for cell growth-stimulative effect on artificial bulbus pili site, in words: final concentration 10^−12 M or 10^−14 M, summary of Table 2. Format: cell-based. The procedure:
Growth-Stimulative Activity Test on Artificial Human Bulbus Pili Cell
(1) Preparation of First Stage Incubated Outer Root Sheath Cell
A bulbus pili site of a hair follicle isolated from a human scalp obtained by a plastic surgery was excised and then enzymatically treated in Keratinocyte-SFM medium (GibcoBRL:11965-011) supplemented with 1000 unit/ml dispase+0.2% collagenase at 37° C. for 30 minutes. After unnecessary hair follicle mesenchymal tissue such as connective tissue root sheath was removed therefrom using the tip of a syringe needle (27G), the residue was placed in the incubating space of an incubator coated with collagen and explant culture was performed in Keratinocyte-SFM medium supplemented with an antibacterial agent. After incubation for about 1 week, the medium was exchanged upon ensuring the growth of the cells. Cells grown to be subconfluent were treated with PBS(−)+0.05% trypsin at 37° C. for 3 minutes and the reaction was stopped with an equivalent amount or more of PBS(−)+0.1% trypsin inhibitor (Sigma). The cells were collected by centrifugal separation (1200 rpm×5 min) and suspended again in PBS(−). The cells were collected by centrifugal separation (1200 rpm×5 min), thereby washing the cells. Washed cells were stored while being frozen in a liquid nitrogen using Cellbanker II (DIA-IATRON: ZCB-201(100)), thereby obtaining the first stage incubated outer root sheath cells.
(2) Preparation of First Stage Incubated Dermal Papilla Cell
From a bulbus pili site obtained by excising a hair follicle isolated from a human scalp obtained by a plastic surgery, using the tip of a syringe needle (27G), a dermal papilla site was isolated under a stereoscopic microscope and placed in the incubating space of an incubator coated with collagen. Then, explant culture was performed in 10% FBS-added DMEM medium (GibcoBRL: 11965-092) supplemented with an antibacterial agent. After incubation for about 2 week, the medium was exchanged upon ensuring the growth of the cells. Cells grown to be subconfluent were treated with PBS(−)+0.05% trypsin at 37° C. for 3 minutes and the reaction was stopped with an equivalent amount or more of PBS(−)+0.1% trypsin inhibitor (Sigma). The cells were collected by centrifugal separation (1200 rpm×5 min) and suspended again in PBS(−). The cells were collected by centrifugal separation (1200 rpm×5 min), thereby washing the cells. Washed cells were stored while being frozen in a liquid nitrogen using Cellbanker II (DIA-IATRON: ZCB-201(100)), thereby obtaining the first stage incubated dermal papilla cells.
(3) Manufacture of the Artificial Bulbus Pili Site
The first stage incubated dermal papilla cell obtained above was subcultured three times (37° C., 5% CO2) in a 10% FBS-supplemented DMEM medium (GibcoBRL: 11965-092) in a 75 cm^2 incubation flask coated with Type I collagen, and then stored while being frozen in a liquid nitrogen using Cellbanker II (DIA-IATRON: ZCB-201(100)) (DPc).
Also, the first stage incubated outer root sheath cell obtained above was subcultured three times (37° C., 5% CO2) in a Keratinocyte-SFM medium (GibcoBRL: 11965-011) in a 75 cm^2 incubation flask coated with Type I collagen, and then stored while being frozen in a liquid nitrogen using Cellbanker II (DIA-IATRON: ZCB-201(100)) (ORSc).
The DPc and ORSc stored as frozen were thawed, washed with an ice-cooled Keratinocyte-SFM medium, dispersed in Keratinocyte-SFM(+) medium (which is Keratinocyte-SFM medium supplemented with 5 ng/mL epidermal growth factor and 5 μl/mL bovine pituitary glanusi extract), and subjected to an accurate cell density measurement using a hemocytometer. Then, each cell density was adjusted at 5×10^4 cells/ml, and the cell dispersions in equal volumes were combined under cooling with ice. 80 μl aliquots of the combined cell suspending Keratinocyte-SFM(+) medium were inoculated into individual wells of Sumilon celltight spheroid 96U plate (Sumitomo Bakelit co.,), and incubated for 2 days (37° C., 5% CO2). […]
A general note: Resazurin is reduced to fluorescent resorufin, in cell work by metabolically active cells.

For assay [2], the system named is immortalized human outer root sheath cell. Description: Growth-stimulative activity test on immortalized human outer root sheath cell ([3H]-thymidine uptake). Type of assay: cell-based. The conditions noted are these: negative control (KBM+dH2O) = 100%, 2 days incubation. As for the experimental part: Growth-Stimulative Activity Test on Immortalized Human Outer Root Sheath Cell (I) Immortalized Human Outer Root Sheath Cell Keratinocyte-SFM medium (Gibco BRL), to which a supplement attached with the medium was added, was used for culture on a dish which surface was coated with collagen. The cell was cultured until it became semiconfluent and then peeled off with 0.05% trypsin/PBS(−) and subcultured. 30-40th stage culture cells were used for study on growth. (2) Sample Preparation Each tested compound described below is dissolved with distilled water at the concentration of 10 mM and sterilized through Millipore filter. This aqueous solution was diluted with KBM at a predetermined concentration and added to the cell as a sample. The immortalized human outer root sheath cell was inoculated into a microplate (Iwaki, 24 wells) (20000 cells/well) with a growth medium KGM (Sanko Junyaku Co., Ltd., CC-3111) and incubated at 37° C. for 1 day. After each well was washed once with basal medium KBM (Sanko Junyaku Co., Ltd., CC-3101), the medium was exchanged with KBM containing each sample, and then incubated further for 2 days. [^3H]-Thymidine (Amersham Pharmacia Biotech K.K., TRK758, the final concentration: 20 μCi/ml) was added thereto and incubated at 37° C. for 3 hours. The cell was peeled off with 0.25% trypsin/PBS(−) and collected on a glass filter (Watmann, GLC). After [^3H]-thymidine that is not taken into the cell was removed by washing with distilled water, the filter was air-dried and then the radioactivity was measured by a liquid scintillation counter. […], using the uptake quantity of radioactivity in the sample-added group when that in the negative control medium (KBM+dH2O) was regarded as 100%, the immortalized human outer root sheath cell growth activity was evaluated.

Consider `CCN(C)CCCC(C#N)(c1ccc(OC)c(OC)c1)C(C)C` (stereo not drawn) [Example 4], for which, in assay [1], the “Judgment (cell growth-stimulative effect by relative respiration level)” value is given as “+++ (Very strong effect is recognized (115% or more))” and the “cell growth-stimulative effect on artificial bulbus pili site, in words” value (“cell growth-stimulative effect … in words” for short) was “very strong effects”.

For the molecule `CCCN(C)CCCC(C#N)(c1ccc(OC)c(OC)c1)C(C)C` (stereo not drawn) [Example 5], in assay [1], the “Judgment (cell growth-stimulative effect by relative respiration level)” value was “+ (Effect is recognized (105% or more, and less then 110%))”.

On to `COc1ccc(C(C#N)(CCCN(C)C(C)C)C(C)C)cc1OC` (stereo not drawn) [Example 6], for which, in assay [1], the “Judgment (cell growth-stimulative effect by relative respiration level)” value was “+ (Effect is recognized (105% or more, and less then 110%))”.

In the case of `CCCCN(C)CCCC(C#N)(c1ccc(OC)c(OC)c1)C(C)C` (stereo not drawn) [Example 7], the “Judgment (cell growth-stimulative effect by relative respiration level)” value in assay [1] was “+ (Effect is recognized (105% or more, and less then 110%))”.

For the molecule `COc1ccc(C(C#N)(CCCN(C)CC(C)C)C(C)C)cc1OC` (stereo not drawn) [Example 8], in assay [1], the “Judgment (cell growth-stimulative effect by relative respiration level)” value is “++ (Strong effect is recognized (110% or more, and less than 115%))”; the “cell growth-stimulative effect … in words” value is listed as “strong effects”.

Turning to `CCCN(CCC)CCCC(C#N)(c1ccc(OC)c(OC)c1)C(C)C` (stereo not drawn) [Example 12], in assay [1], the “Judgment (cell growth-stimulative effect by relative respiration level)” value is “+ (Effect is recognized (105% or more, and less then 110%))”.

Take `COc1ccc(C(C#N)(CCCN(CC(C)C)CC(C)C)C(C)C)cc1OC` (stereo not drawn) [Example 15]: the “Judgment (cell growth-stimulative effect by relative respiration level)” value in assay [1] is “+ (Effect is recognized (105% or more, and less then 110%))”.

For `COc1ccc(C(C#N)(CCCN(C)CCC(C)C)C(C)C)cc1OC.Cl` (stereo not drawn) [Example 21, 2-(3′,4′-dimethoxyphenyl)-2-isopropyl-5-[N-methyl-N-(3-methylbutyl)amino]-pentanenitrile hydrochloride], the “[^3H]-thymidine uptake quantity” value in assay [2] (concentration 10^−9 M) is reported as 151%; in assay [2] (concentration 10^−10 M), 143%; in assay [2] (concentration 10^−11 M), 160%; in assay [2] (concentration 10^−12 M) it was 114%; in assay [2] (concentration 10^−13 M) it was 118%.

`CNCCC[C@](C#N)(c1ccc(OC)c(OC)c1)C(C)C.Cl` [Example 22, (R)-2-(3′,4′-dimethoxyphenyl)-2-isopropyl-5-methylaminopentanenitrile hydrochloride]: the “[^3H]-thymidine uptake quantity” value came out at 105% in assay [2] (concentration 10^−9 M); 98% in assay [2] (concentration 10^−10 M); 111% in assay [2] (concentration 10^−11 M); 135% in assay [2] (concentration 10^−12 M); 153% in assay [2] (concentration 10^−13 M); 160% in assay [2] (concentration 10^−14 M).

In the case of `COc1ccc([C@@](C#N)(CCCN(C)CCC(C)C)C(C)C)cc1OC.Cl` [Example 23, (R)-2-(3′,4′-dimethoxyphenyl)-2-isopropyl-5-[N-methyl-N-(3-methylbutyl)amino]-pentanenitrile hydrochloride], the “[^3H]-thymidine uptake quantity” value was 115% in assay [2] (concentration 10^−9 M); 106% in assay [2] (concentration 10^−10 M); 107% in assay [2] (concentration 10^−11 M); 117% in assay [2] (concentration 10^−12 M); 114% in assay [2] (concentration 10^−13 M); 125% in assay [2] (concentration 10^−14 M).

For `COc1ccc(C(C#N)(CCCN2CCOCC2)C(C)C)cc1OC` (stereo not drawn) [Example 24, 2-(3′,4′-dimethoxyphenyl)-2-isopropyl-5-morpholine-4″-yl-pentanenitrile], the “Judgment (cell growth-stimulative effect by relative respiration level)” value in assay [1] is “± (Weak effect is recognized (102% or more, and less then 105%))”.

Consider `COc1ccc(C(C#N)(CCCn2cccc2)C(C)C)cc1OC` (stereo not drawn) [Example 25, 2-(3′,4′-dimethoxyphenyl)-2-isopropyl-5-pyrrole-1″-yl-pentanenitrile], for which, in assay [1], the “Judgment (cell growth-stimulative effect by relative respiration level)” value was “++ (Strong effect is recognized (110% or more, and less than 115%))”; the “cell growth-stimulative effect … in words” value was “strong effects”.

Regarding `COc1ccc(C(C#N)(CCCn2ccnc2)C(C)C)cc1OC` (stereo not drawn) [Example 26, 2-(3′,4′-dimethoxyphenyl)-5-imidazole-1″-yl-2-isopropylpentanenitrile], the “Judgment (cell growth-stimulative effect by relative respiration level)” value in assay [1] was “+ (Effect is recognized (105% or more, and less then 110%))”.

Turning to `COc1ccc(C(C#N)(CCCn2cccn2)C(C)C)cc1OC` (stereo not drawn) [Example 27, 2-(3′,4′-dimethoxyphenyl)-2-isopropyl-5-pyrazole-1″-yl-pentanenitrile], the “Judgment (cell growth-stimulative effect by relative respiration level)” value in assay [1] was “+ (Effect is recognized (105% or more, and less then 110%))”.

Regarding `CCCCCN(C)CCCC(C#N)(c1ccc(OC)c(OC)c1)C(C)C` (stereo not drawn) [Example 28, 2-(3′,4′-dimethoxyphenyl)-2-isopropyl-5-[N-methyl-N-(n-pentyl)amino]pentane nitrile], in assay [1], the “Judgment (cell growth-stimulative effect by relative respiration level)” value was “++ (Strong effect is recognized (110% or more, and less than 115%))”; the “cell growth-stimulative effect … in words” value is recorded as “strong effects”.

For the origin of these results see patent US20050176822A1, “Phenylacetonitrile derivatives and hair tonics and external preparations for skin containing the derivatives” (priority 2002, published 2005).
